Experimental data taken from patent US20260240827A1, “PALATABLE LIQUID SOLUTION CONTAINING HIGH CONCENTRATION OF MIGLUSTAT” (THERANEXUS, priority 2022, published 2026).

Columns and labels:
[1] = Drug excipient compatibility: physical description after storage; type: physicochemical; conditions: up to 4 weeks 40° C./75% RH and 25° C./60% RH, 60° C. 1 week
Experimental: This study was conducted to assess the compatibility of miglustat with excipient candidates that can be used in the liquid Miglustat product. Each different excipient was manually stirred with miglustat and stored into amber glass vials.
Vials were stored in climatic chambers with different environmental conditions: 25° C./60% RH, 40° C./75% RH and 60° C. for up to 4 weeks, in closed containers. (RH=relative humidity)
After the defined storage time, samples were exited from the climatic chambers. Operators observed the solution and described the appearance of the solution by visual inspection.

[2] = ambient temperature; cited from earlier work

Compatibility of excipient with Miglustat in binary mixture (DEC study conclusion) [1]	Structure (SMILES)	Solubility in water [2]
not compatible	CC1=CC(=O)NS(=O)(=O)O1 [Acesulfame Potassium]	
	CCCCN1C[C@H](O)[C@@H](O)[C@H](O)[C@H]1CO [Miglustat, 1,5-(butylimino)-1,5-dideoxy-D-glucitol]	> 1000 mg/mL
compatible	O=C(O)C(O)C(O)C(=O)O (stereo not drawn) [Tartaric acid, 2,3-Dihydroxybutanedioic acid]	
not compatible	O=C1O[C@H]([C@@H](O)CO)C(O)=C1O [ascorbic acid]	

Structure (SMILES)	Compatibility of excipient with Miglustat in binary mixture (DEC study conclusion) [1]	Solubility in water [2]
Cl [Hydrochloric acid]	not compatible	
O=C([O-])c1ccccc1.[Na+] [Sodium Benzoate, sodium salt of benzoic acid]	compatible	
